15 molecules from ChEMBL document CHEMBL1145916, “A method for designing conformationally restricted analogues based on allylic strain: synthesis of a novel class of noncompetitive NMDA receptor antagonists having the acrylamide structure” (J Med Chem, 2003) can be followed below.

For this experiment, the target named is Glutamate NMDA receptor. As to the kind of experiment: Binding affinity for N-methyl-D-aspartate glutamate receptor of cerebral cortical synaptic membranes from rats using [3H]MK-801 as radioligand.

In the case of `CCCCN(CCCC)C(=O)/C(=C\C1CCCN1)c1ccccc1` (stereo not given), the IC50 (in general, the concentration that inhibits the measured activity by half) stood at 4.2 µM. In other words, the single-digit micromolar range. With `CC[C@H](N)[C@@H]1C[C@@]1(C(=O)N(CC)CC)c1ccccc1` the figure was 0.2 µM.

`CCCN(CCC)C(=O)/C(=C\C1CCCN1)c1ccc(C)cc1` (stereo not given) registered an IC50 greater than 1000 µM.

In turn, `CCCN(CCC)C(=O)/C(=C\C1CCCN1)c1cccc(F)c1` (stereo not given) returned an IC50 of 0.42 µM. The molecule `CCCN(CCC)C(=O)/C(=C\C1CCCN1)c1ccc(F)cc1` (stereo not given) showed an IC50 of 13 µM.

The molecule `O=C(/C(=C\C1CCCN1)c1ccccc1)N1CCCCCC1` (stereo not given) yielded an IC50 of 16 µM. With `CCCN(CC1CC1)C(=O)/C(=C\C1CCCN1)c1ccccc1` (stereo not given), the IC50 was 0.74 µM. For `C=C(C)CN(CC)C(=O)/C(=C\C1CCCN1)c1ccccc1` (stereo not given), the IC50 is 0.52 µM. Then `CCCN(CCC)C(=O)/C(=C\C1CCCN1)c1ccccc1` (stereo not given), with 0.54 µM; and `O=C(/C(=C\C1CCCN1)c1ccccc1)N1CCNCC1` (stereo not given), with greater than 1000 µM; and `CCN(CC)C(=O)/C(=C\C1CCCN1)c1ccccc1` (stereo not given), with 3.6 µM.

`CCCN(CCC)C(=O)/C(=C\C1CCCN1)c1ccc(OC)cc1` (stereo not given) had an IC50 of 160 µM. This IC50 lies about 44-fold higher than the previous one. With `CCCN(CCC)C(=O)/C(=C\C1CCCN1)c1ccccc1F` (stereo not given) the figure was 1.7 µM.

`CCN(CC)C(=O)[C@@]1(c2ccccc2)C[C@H]1C1CCCN1` (stereo not given in full) showed an IC50 of 1 µM. With `CCCN(CCC)C(=O)/C(=C\C(N)CC)c1ccccc1` (stereo not given) the figure was 0.53 µM.
